Experimental data: patent US12637414B2, “Arylamides and methods of use thereof” (Genzyme Corporation, priority 2019, dated 2026)

Target: T1, human Cystic Fibrosis Transmembrane Conductance Regulator (CFTR) harboring the ΔF508 mutation (Homo sapiens, UniProt P13569, DEL508-508)
T1 construct: expressed in transfected cells; host or cells: H441 carcinoma line (G418 selection)
Test: H441 cell Emax and EC50: HRP-tagged ΔF508-CFTR cell surface luminescence assay
Type: cell-based
Details: H441 cells expressing ΔF508-CFTR-HRP, 27° C., two nights; for EC50: 15-point dose-response, top 24.5 μM; for Emax: NCI-H441, % of maximum VX809 signal
How it was run: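 Cells express ΔF508-CFTR carrying an HRP tag in extracellular loop 4 (CMV promoter); ~10K cells/well treated with a 15-point series from 24.5 µM and incubated two nights at 27° C. Surface CFTR read by luminescence from HRP substrate. EC50 and Emax given relative to maximal VX809 (260 µM stock) signal.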

T1 sequence (P13569 with tags, fused parts or gaps DEL508-508): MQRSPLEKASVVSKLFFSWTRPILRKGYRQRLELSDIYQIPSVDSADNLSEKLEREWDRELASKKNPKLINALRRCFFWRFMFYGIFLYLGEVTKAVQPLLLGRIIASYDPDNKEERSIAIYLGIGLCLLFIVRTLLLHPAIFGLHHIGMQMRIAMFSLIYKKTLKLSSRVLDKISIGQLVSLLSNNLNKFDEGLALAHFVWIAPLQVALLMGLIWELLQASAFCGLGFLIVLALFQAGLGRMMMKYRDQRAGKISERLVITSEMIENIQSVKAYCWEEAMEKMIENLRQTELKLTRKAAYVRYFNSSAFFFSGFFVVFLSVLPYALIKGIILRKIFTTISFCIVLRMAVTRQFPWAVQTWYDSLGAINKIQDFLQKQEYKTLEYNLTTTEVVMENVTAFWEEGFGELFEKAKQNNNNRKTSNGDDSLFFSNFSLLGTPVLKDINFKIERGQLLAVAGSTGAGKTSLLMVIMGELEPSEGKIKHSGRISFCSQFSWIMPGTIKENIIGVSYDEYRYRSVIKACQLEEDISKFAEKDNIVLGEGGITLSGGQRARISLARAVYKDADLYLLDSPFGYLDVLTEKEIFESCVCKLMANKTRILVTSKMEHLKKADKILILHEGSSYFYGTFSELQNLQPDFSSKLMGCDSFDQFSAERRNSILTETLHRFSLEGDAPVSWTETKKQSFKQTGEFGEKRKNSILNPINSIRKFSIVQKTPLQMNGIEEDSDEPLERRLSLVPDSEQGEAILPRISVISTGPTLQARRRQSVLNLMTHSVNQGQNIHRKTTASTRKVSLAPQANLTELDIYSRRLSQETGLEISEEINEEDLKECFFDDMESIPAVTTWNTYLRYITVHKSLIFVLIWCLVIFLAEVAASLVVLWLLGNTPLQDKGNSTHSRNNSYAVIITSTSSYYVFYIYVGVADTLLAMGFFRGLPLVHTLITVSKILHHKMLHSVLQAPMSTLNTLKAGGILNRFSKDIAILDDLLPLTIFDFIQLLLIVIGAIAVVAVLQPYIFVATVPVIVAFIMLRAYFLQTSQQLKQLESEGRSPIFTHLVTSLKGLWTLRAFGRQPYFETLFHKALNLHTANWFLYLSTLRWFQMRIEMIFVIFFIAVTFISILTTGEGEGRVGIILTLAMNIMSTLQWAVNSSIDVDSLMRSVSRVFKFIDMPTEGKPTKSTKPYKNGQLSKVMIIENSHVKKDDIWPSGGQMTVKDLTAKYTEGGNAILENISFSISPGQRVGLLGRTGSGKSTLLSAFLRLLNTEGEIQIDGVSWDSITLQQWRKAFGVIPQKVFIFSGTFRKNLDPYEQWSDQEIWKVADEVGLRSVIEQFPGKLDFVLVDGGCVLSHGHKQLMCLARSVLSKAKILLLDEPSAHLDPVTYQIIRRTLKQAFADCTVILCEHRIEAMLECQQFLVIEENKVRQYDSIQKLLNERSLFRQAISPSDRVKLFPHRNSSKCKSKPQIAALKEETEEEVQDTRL

Structure (SMILES)	EC50 [nM]	Emax [%]
CC12CC3(C)CC(C)(C1)CC(C(NC(=O)c1ccc4ccccc4c1OCc1ccc(C(F)(F)C(F)(F)F)cc1)C(=O)O)(C2)C3 (stereo not drawn) [compound 76]	212	196
O=C(N[C@H](C(=O)O)C12CC3CC(CC(C3)C1)C2)c1ccc2ccccc2c1OCc1ccc(OC(F)F)cc1 [compound 78]	≥ 24500	7.8
O=C(N[C@H](C(=O)O)C12CC3CC(CC(C3)C1)C2)c1ccc2cccnc2c1OCc1nc2ccccc2s1 [compound 51]	1600	206
NC12CC3CC(C1)CC([C@H](NC(=O)c1ccc4ccccc4c1OCc1ccc(C(F)(F)F)cc1)C(=O)O)(C3)C2 [compound 92]	–	-1.3
O=C(N[C@H](C(=O)O)C12CC3CC(CC(C3)C1)C2)c1ccc2ccccc2c1NCc1ccc(SC(F)(F)F)cc1 [compound 123, (2S)-2-(1-adamantyl)-2-[[1-[[4-(trifluoromethylsulfanyl)phenyl]methylamino]naphthalene-2-carbonyl]amino]acetic acid]	278	51.9
O=C(N[C@H](C(=O)O)C12CC3CC(CC(C3)C1)C2)c1ccc2ccccc2c1OCc1ccc(SC(F)(F)F)cc1 [compound 2]	393	154
CCOC(=O)[C@H](C)OC12CC3CC(C1)CC([C@H](NC(=O)c1ccc4cc(F)ccc4c1OCc1ccc(C(F)(F)F)cc1)C(=O)O)(C3)C2 [compound 87]	287	96.2
O=C(N[C@H](C(=O)O)C12CC3CC(CC(O)(C3)C1)C2)c1ccc2sccc2c1OCc1ccc(OC(F)(F)F)cc1 [compound 109, (2S)-2-(3-hydroxy-1-adamantyl)-2-[[4-[[4-(trifluoromethoxy)phenyl]methoxy]benzothiophene-5-carbonyl]amino]acetic acid]	1760	121
CC12CC3(C)CC(C)(C1)CC(C(NC(=O)c1ccc4ccccc4c1OCC1CCCCC1)C(=O)O)(C2)C3 (stereo not drawn) [compound 75]	599	271
CC(=O)COC12CC3CC(C1)CC([C@H](NC(=O)c1ccc4cc(F)ccc4c1OCc1ccc(C(F)(F)F)cc1)C(=O)O)(C3)C2 [compound 66]	1380	84.2
O=C(N[C@H](C(=O)O)C12CC3CC(CC(C3)C1)C2)c1ccc2ccccc2c1OCc1ccc(S(F)(F)(F)(F)F)cc1 [compound 47]	449	148
O=C(N[C@H](C(=O)O)C12CC3CC(CC(C3)C1)C2)c1ccc2sccc2c1OCc1ccc(OC(F)F)cc1 [compound 107, (2S)-2-(1-adamantyl)-2-[[4-[[4-(difluoromethoxy)phenyl]methoxy]benzothiophene-5-carbonyl]amino]acetic acid]	–	-7.7
O=C(N[C@H](C(=O)O)C12CC3CC(CC(C3)C1)C2)c1ccc2ccccc2c1OCC1CCCCC1 [compound 52]	903	171
O=C(N[C@H](C(=O)O)C12CC3CC(CC(C3)C1)C2)c1sc2ccccc2c1OCc1ccc(OC(F)(F)F)cc1 [compound 93]	908	108
O=C(N[C@H](C(=O)O)[C@]12C[C@H]3C[C@](O)(C[C@](Cl)(C3)C1)C2)c1ccc2ccccc2c1OCc1ccc(OC(F)(F)F)cc1 [compound 80, (S)-2-((1S,3S,5R,7S)-3-chloro-5-hydroxyadamantan-1-yl)-2-(1-((4-(trifluoromethoxy)benzyl)oxy)-2-naphthamido)acetic acid]	78	184
O=C(NC(C(=O)O)C12CC3CC(CC(O)(C3)C1)C2)c1ccc2ccccc2c1OCc1ccc(C(F)(F)F)cc1 (stereo not drawn) [compound 79]	1030	137
